Consider ten compounds from US12595248B2, “PRMT5 inhibitors” (Merck Sharp & Dohme LLC, priority 2019, dated 2026).

In experiment [1] the target is T1, PRMT5-MEP50 enzyme complex (Homo sapiens, UniProt O14744).
T1 construct: Full-length (FL)-PRMT5-MEP50 enzyme complex (recombinant proteins from baculovirus-transfected Sf21 cells: FL-PRMT5; MW=73837 kDa and FL-MEP50; MW=38614); made in house; host or cells: baculovirus-transfected Sf21 cells
Description: PRMT5-MEP50 Enzyme Methylation Assay (Version A). It is filed as biochemical.

The target in the next experiment is T2, PRMT5 (Homo sapiens, UniProt O14744).
T2 construct: seeded with 4000 MCF-7 cells in 30 μl media; endogenous in cells; host or cells: MCF-7 cells
Description: PRMT5 Cell Target Engagement (TE) Assay. It is filed as cell-based. The following applies: MCF-7 cells, treated for 3 days, symmetric dimethylation of arginine (SDMA) by high content imaging. The procedure, abridged: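 Readout is single-cell nuclear symmetric-dimethylarginine immunofluorescence (Alexa488), normalized to DMSO-treated cells. Compounds were applied to MCF-7 cells for 3 days at 37 °C, top concentration 10000 nM in 1:3 steps over ten points; curves fitted with 4-parameter robust fit.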

Where [2] appears, read: only one EC50 shown: 4 parameters single site sigmoidal model, 60 min pre-incubation with SAM, read-out: Enzyme Methylation Assay Version A (EC50).
Setting [3] is: first of two EC50s: 7 parameters biphasic model, read-out: Enzyme Methylation Assay Version A (EC50_1).
[4] abbreviates: second of two EC50s: 7 parameters biphasic model, read-out: Enzyme Methylation Assay Version A (EC50_2).

Like-named read-outs stand apart in the source and are kept apart here.

T2 sequence (O14744 whole entry): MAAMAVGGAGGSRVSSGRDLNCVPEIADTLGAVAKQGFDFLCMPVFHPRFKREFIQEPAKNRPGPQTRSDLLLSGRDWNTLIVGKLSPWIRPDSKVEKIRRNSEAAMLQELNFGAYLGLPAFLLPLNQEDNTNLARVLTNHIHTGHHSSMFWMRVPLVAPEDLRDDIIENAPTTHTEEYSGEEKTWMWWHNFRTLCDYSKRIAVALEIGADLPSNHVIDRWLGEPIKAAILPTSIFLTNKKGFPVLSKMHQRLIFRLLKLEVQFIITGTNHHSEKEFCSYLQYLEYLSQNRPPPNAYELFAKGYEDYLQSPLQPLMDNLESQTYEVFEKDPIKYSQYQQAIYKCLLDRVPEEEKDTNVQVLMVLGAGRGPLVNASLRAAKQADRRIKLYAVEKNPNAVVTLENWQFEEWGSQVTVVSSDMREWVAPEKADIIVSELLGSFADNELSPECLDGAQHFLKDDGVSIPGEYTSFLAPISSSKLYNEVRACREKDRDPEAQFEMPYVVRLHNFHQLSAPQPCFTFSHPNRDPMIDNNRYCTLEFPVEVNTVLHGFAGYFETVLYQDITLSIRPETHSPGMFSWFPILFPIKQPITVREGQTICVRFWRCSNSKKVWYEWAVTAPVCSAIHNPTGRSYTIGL
T2 sequence (Q9BQA1 whole entry partner): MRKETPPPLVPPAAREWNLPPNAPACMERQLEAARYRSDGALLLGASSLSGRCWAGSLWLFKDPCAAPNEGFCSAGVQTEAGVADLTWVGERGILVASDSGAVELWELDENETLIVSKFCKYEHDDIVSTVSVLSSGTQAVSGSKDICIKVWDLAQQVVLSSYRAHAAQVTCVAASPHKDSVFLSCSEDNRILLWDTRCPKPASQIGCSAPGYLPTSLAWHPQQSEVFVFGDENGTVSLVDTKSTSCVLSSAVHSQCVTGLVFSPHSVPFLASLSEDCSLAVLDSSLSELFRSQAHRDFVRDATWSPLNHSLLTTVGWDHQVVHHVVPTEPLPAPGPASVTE
T1 sequence (O14744 whole entry): as the sequence (O14744 whole entry) above
T1 sequence (Q9BQA1 whole entry partner): as the sequence (Q9BQA1 whole entry partner) above

Regarding `CC(=O)N1CCC(Nc2nccc(C(=O)N3CC[C@@H](N4CCc5ccccc5C4)[C@H](O)C3)c2F)CC1` [Example 19, 1-(4-((4-((3R,4R)-4-(3,4-dihydroisoquinolin-2(1H)-yl)-3-hydroxypiperidine-1-carbonyl)-3-fluoropyridin-2-yl)amino)piperidin-1-yl)ethan-1-one], the EC50 in experiment [1] (setting [2]) came out at 507 nM; on PRMT5 it was 9800 nM.

For the compound `CC(=O)N1C2CCC1CC(Nc1cc(C(=O)N3CC[C@H](N4CCc5ccccc5C4)[C@@H](O)C3)c(F)cn1)C2` (stereo partly drawn) [Example 122, 1-(3-((4-((3S,4S)-4-(3,4-dihydroisoquinolin-2(1H)-yl)-3-hydroxypiperidine-1-carbonyl)-5-fluoropyridin-2-yl)amino)-8-azabicyclo[3.2.1]octan-8-yl)ethan-1-one], the EC50 in experiment [1] (setting [2]) came to 3.4 nM; at PRMT5, 5.9 nM.

In the case of `CC(=O)N1CCC(Nc2cc(C(=O)N3CC[C@H](N4CCc5ccccc5C4)[C@@H](O)C3)c(F)cn2)C1` (single isomer, unassigned) [Example 113], the EC50 is 3.1 nM in experiment [1] (setting [3]), 9550 nM in experiment [1] (setting [4]) and 50 nM at PRMT5.

In the case of `CN1CCC(Nc2cc(C(=O)N3CC[C@H](N4CCc5ccccc5C4)[C@@H](O)C3)c(F)cn2)CC1=O` (stereo partly drawn) [Example 112, 4-((4-((3S,4S)-4-(3,4-dihydroisoquinolin-2(1H)-yl)-3-hydroxypiperidine-1-carbonyl)-5-fluoropyridin-2-yl)amino)-1-methylpiperidin-2-one], the EC50 in experiment [1] (setting [3]) was 4.5 nM; in experiment [1] (setting [4]), 4420 nM; on PRMT5, 50 nM.

For `O=C(c1ccc2c(c1)NCCN(C1CCOC1)C2=O)N1CC[C@H](N2CCc3ccccc3C2)[C@@H](O)C1` (stereo partly drawn) [Example 65, 8-((3S,4S)-4-(3,4-dihydroisoquinolin-2(1H)-yl)-3-hydroxypiperidine-1-carbonyl)-4-(tetrahydrofuran-3-yl)-1,2,3,4-tetrahydro-5H-benzo[e][1,4]diazepin-5-one], the EC50 stood at 3.5 nM in experiment [1] (setting [2]) and 9.6 nM on PRMT5.

Take `CC(=O)N1C[C@H]2CC[C@@H](C1)C2Nc1cc(C(=O)N2CC[C@H](N3CCc4ccccc4C3)[C@@H](O)C2)c(F)cn1` (stereo partly drawn) [Example 124, 1-((1R,5S)-8-((4-((3S,4S)-4-(3,4-dihydroisoquinolin-2(1H)-yl)-3-hydroxypiperidine-1-carbonyl)-5-fluoropyridin-2-yl)amino)-3-azabicyclo[3.2.1]octan-3-yl)ethan-1-one]: the EC50 turned out to be 5.2 nM in experiment [1] (setting [3]), 4270 nM in experiment [1] (setting [4]) and 33 nM at PRMT5.

On to `O=C(c1cn2cc(Cl)ccc2n1)N1CC[C@H](N2CCc3ccccc3C2)[C@@H](O)C1` [Example 132, (6-chloroimidazo[1,2-a]pyridin-2-yl)[(3S,4S)-4-(3,4-dihydroisoquinolin-2(1H)-yl)-3-hydroxypiperidin-1-yl]methanone], for which the values for the EC50 (in experiment [1] (setting [2]); at PRMT5) were 3.2 nM and 32 nM, respectively.

In the case of `Cc1cnc2nc(C(=O)N3CC[C@H](N4CCc5ccccc5C4)[C@@H](O)C3)cn2c1` [Example 72, [(3S,4S)-4-(3,4-dihydroisoquinolin-2(1H)-yl)-3-hydroxypiperidin-1-yl](6-methylimidazo[1,2-a]pyrimidin-2-yl)methanone], the values for the EC50 (in experiment [1] (setting [3]); in experiment [1] (setting [4]); at PRMT5) were 0.9 nM, 248 nM and 37 nM, respectively.

As for `CC1CC1c1cnc2nc(C(=O)N3CCC(N4CCc5ccccc5C4)[C@@H](O)C3)cn2c1` (single isomer, unassigned) [Example 131], the EC50 in experiment [1] (setting [2]) came out at 0.5 nM; on PRMT5, 4.6 nM.

As for `O=C(c1cc(NC2CCN(C(=O)C3CC3)CC2)ncc1F)N1CC[C@H](N2CCc3ccccc3C2)[C@@H](O)C1` [Example 108, (2-((1-(cyclopropanecarbonyl)piperidin-4-yl)amino)-5-fluoropyridin-4-yl)((3S,4S)-4-(3,4-dihydroisoquinolin-2(1H)-yl)-3-hydroxypiperidin-1-yl)methanone], the figures for the EC50 (in experiment [1] (setting [2]); on PRMT5) were 1.3 nM and 3.8 nM, respectively.
